Test results: patent US20160153032A9, “METHOD FOR PREDICTING A MANIFESTATION OF AN OUTCOME MEASURE OF A CANCER PATIENT” (Signature Diagnostics AG, priority 2013, published 2016)

System: patient derived xenografts (PDXs) of colorectal tumors
Assay: Therapy experiments in patient derived xenograft models, treated to control (T/C) ratio of tumor size
Type: in vivo, NMRI: nu/nu mice
Conditions: monotherapy, 67 PDX models
Protocol: Transplantation of 239 human, primary colorectal tumors of patients with colorectal cancer of all four UICC stages was performed onto nude mice. […] For each drug and each of the 67 xenograft models, five mice were treated in addition to five control animals (335 animals plus 335 controls per drug). At the end of the therapy experiment, the median diameter of the tumors (C) of the 5 control animals is devided by the median diameter of the five treated animals (T).
Shortly after surgery, original colorectal cancer tumor pieces were shipped in gentamicin containing RPMI-1640 medium to the mouse facility. After arrival at the mouse facilities they were transplanted onto immunodeficient mice and were further passaged until a stably grown tumor xenografts has developed.
Surgical colorectal tumor samples were cut into pieces of 3 to 4 mm and transplanted within 30 min s.c. to 3 to 6 immunodeficient NOD/SCID mice (Taconic); the gender of the mice was chosen according to the donor patient. Additional tissue samples were immediately snap-frozen and stored at −80° C. for genetic, genomic, and protein analyses. […] Mice were observed daily for tumor growth. At a size of about 1 cm3, tumors were removed and passaged to naive NMRI: nu/nu mice (Charles River) for chemosensitivity testing. Tumors were passaged no more than 10 times. Numerous samples from early passages were stored in the tissue bank in liquid nitrogen and used for further experiments. […] All xenografts as well as the corresponding primary tumors were subjected to histological evaluation using snap-frozen, haematoxylin-eosin-stained tissue sections.
Each of the 75 tumors was transplanted onto 20 mice (5 controls and 5 for each drug).
The chemotherapeutic response of the passagable tumors was determined in male NMRI: nu/nu mice. For that purpose, one tumor fragment each was transplanted s.c. to a number of mice. At palpable tumor size (50-100 mm^3), 6 to 8 mice each were randomized to treatment and control groups and treatment was initiated. […] Doses and schedules were chosen according to previous experience in animal experiments and represent the maximum tolerated or efficient doses. The injection volume was 0.2 ml/20 g body weight.
Tumor size was measured in two dimensions twice weekly with a caliper-like instrument. Individual tumor volumes (V) were calculated by the formula: V=(length+[width]2)/2 and related to the values at the first day of treatment (relative tumor volume). Median treated to control (T/C) values of relative tumor volume were used for the evaluation of each treatment modality and categorized according to scores (− to ++++;). The mean tumor doubling time of each xenograft model was calculated by comparing the size between 2- and 4-fold relative tumor volumes. Statistical analyses were done with the U test (Mann and Whitney) with P<0.05. The body weight of mice was determined every 3 to 4 days and the change in body weight was taken as variable for tolerability.

In the case of “Bevacizumab: humanized monoclonal antibody that binds to vascular endothelial growth factor A (VEGF-A)”, the “Nonresponder PDXs” value (T/C</=25 (T/C<25)) is reported as 56, the “Responder PDXs” value (T/C</=30, tumor growth inhibited by at least 70%) is reported as 13 and the “Nonresponder PDXs” value (T/C</=30) is reported as 54. The “Responder PDXs” value (T/C</=35 (T/C<35), tumor growth inhibited by at least 65%) was 19 and the “Nonresponder PDXs” value (T/C</=35 (T/C<35)) was 48.
